Laboratory results as given in PubChem BioAssay (NCI).
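1) Cells in 96-well plates. 2) Compound, 48 h, 5 concentrations. 3) Linear interpolation between surrounding doses. 4) Unreached endpoint = highest concentration. Abbreviation: GI50, concentration required for 50% inhibition of growth. TGI is the concentration that stops growth completely.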

Key:
Experiment in all cases: growth of human tumour cells (NCI), 48 h
NCI-H522 lung = system: NCI-H522 lung
K-562 leukemia = system: K-562 leukemia
MALME-3M melanoma = system: MALME-3M melanoma
SK-MEL-28 melanoma = system: SK-MEL-28 melanoma
SK-MEL-2 melanoma = system: SK-MEL-2 melanoma
UACC-62 melanoma = system: UACC-62 melanoma
NCI-H460 lung = system: NCI-H460 lung
SK-MEL-5 melanoma = system: SK-MEL-5 melanoma
OVCAR-5 ovarian = system: OVCAR-5 ovarian
BT-549 breast = system: BT-549 breast
HOP-92 NSCLC = system: HOP-92 NSCLC
RXF 393 renal = system: RXF 393 renal
MCF7 breast = system: MCF7 breast
ACHN renal = system: ACHN renal
NCI/ADR-RES ovarian = system: NCI/ADR-RES ovarian
HCC-2998 colon = system: HCC-2998 colon
OVCAR-3 ovarian = system: OVCAR-3 ovarian
SF-539 CNS = system: SF-539 CNS
OVCAR-4 ovarian = system: OVCAR-4 ovarian
A498 renal = system: A498 renal
SF-295 CNS = system: SF-295 CNS
RPMI-8226 leukemia = system: RPMI-8226 leukemia
COLO 205 colon = system: COLO 205 colon
CAKI-1 renal = system: CAKI-1 renal
MOLT-4 leukemia = system: MOLT-4 leukemia
SNB-75 CNS = system: SNB-75 CNS
UO-31 renal = system: UO-31 renal
MDA-MB-231 breast = system: MDA-MB-231 breast
SF-268 CNS = system: SF-268 CNS
U251 CNS = system: U251 CNS
HS 578T breast = system: HS 578T breast
TK-10 renal = system: TK-10 renal
M14 melanoma = system: M14 melanoma
LOX IMVI melanoma = system: LOX IMVI melanoma
SN12C renal = system: SN12C renal
UACC-257 melanoma = system: UACC-257 melanoma
HL-60(TB) leukemia = system: HL-60(TB) leukemia
SW-620 colon = system: SW-620 colon
NCI-H23 lung = system: NCI-H23 lung
PC-3 prostate = system: PC-3 prostate
CCRF-CEM leukemia = system: CCRF-CEM leukemia
EKVX NSCLC = system: EKVX NSCLC
KM12 colon = system: KM12 colon
SR leukemia = system: SR leukemia
SNB-19 CNS = system: SNB-19 CNS
DU-145 prostate = system: DU-145 prostate
IGROV1 ovarian = system: IGROV1 ovarian
HCT-116 colon = system: HCT-116 colon
HOP-62 NSCLC = system: HOP-62 NSCLC
A549 NSCLC = system: A549 NSCLC
HT29 colon = system: HT29 colon
T-47D breast = system: T-47D breast
NCI-H226 lung = system: NCI-H226 lung
786-0 renal = system: 786-0 renal
HCT-15 colon = system: HCT-15 colon
MDA-MB-435 = system: MDA-MB-435

CCOC(=O)c1c(NCC(=O)Nc2cccc([N+](=O)[O-])c2)sc(C(C)=O)c1C
GI50 (NCI-H522 lung): 1280 nM | TGI (NCI-H522 lung): 4120 nM | GI50 (K-562 leukemia): 1890 nM | TGI (K-562 leukemia): > 100000 nM | GI50 (MALME-3M melanoma): 1510 nM | TGI (MALME-3M melanoma): 3060 nM | GI50 (SK-MEL-28 melanoma): 1780 nM | TGI (SK-MEL-28 melanoma): 3710 nM | GI50 (SK-MEL-2 melanoma): 2010 nM | TGI (SK-MEL-2 melanoma): 4840 nM | GI50 (UACC-62 melanoma): 574 nM | TGI (UACC-62 melanoma): 2140 nM | GI50 (NCI-H460 lung): 1210 nM | TGI (NCI-H460 lung): 3260 nM | GI50 (SK-MEL-5 melanoma): 1680 nM | TGI (SK-MEL-5 melanoma): 3170 nM | GI50 (OVCAR-5 ovarian): 1420 nM | TGI (OVCAR-5 ovarian): 4190 nM | GI50 (BT-549 breast): 1440 nM | TGI (BT-549 breast): 4850 nM | GI50 (HOP-92 NSCLC): 1680 nM | TGI (HOP-92 NSCLC): 4560 nM | GI50 (RXF 393 renal): 1210 nM | TGI (RXF 393 renal): 2510 nM | GI50 (MCF7 breast): 1440 nM | TGI (MCF7 breast): 5210 nM | GI50 (ACHN renal): 1500 nM | TGI (ACHN renal): 2900 nM | GI50 (NCI/ADR-RES ovarian): 1770 nM | TGI (NCI/ADR-RES ovarian): 5390 nM | GI50 (HCC-2998 colon): 1980 nM | TGI (HCC-2998 colon): 3910 nM | GI50 (OVCAR-3 ovarian): 2290 nM | TGI (OVCAR-3 ovarian): 5690 nM | GI50 (SF-539 CNS): 1820 nM | TGI (SF-539 CNS): 4480 nM | GI50 (OVCAR-4 ovarian): 2230 nM | TGI (OVCAR-4 ovarian): 6360 nM | GI50 (A498 renal): 1700 nM | TGI (A498 renal): 3310 nM | GI50 (SF-295 CNS): 2170 nM | TGI (SF-295 CNS): 5110 nM | GI50 (RPMI-8226 leukemia): 2510 nM | TGI (RPMI-8226 leukemia): 6790 nM | GI50 (COLO 205 colon): 1650 nM | TGI (COLO 205 colon): 4600 nM | GI50 (CAKI-1 renal): 1270 nM | TGI (CAKI-1 renal): 3650 nM | GI50 (MOLT-4 leukemia): 570 nM | TGI (MOLT-4 leukemia): > 100000 nM | GI50 (SNB-75 CNS): 2030 nM | TGI (SNB-75 CNS): 5610 nM | GI50 (UO-31 renal): 1270 nM | TGI (UO-31 renal): 2620 nM | GI50 (MDA-MB-231 breast): 2120 nM | TGI (MDA-MB-231 breast): 4770 nM | GI50 (SF-268 CNS): 2110 nM | TGI (SF-268 CNS): 5160 nM | GI50 (U251 CNS): 2360 nM | TGI (U251 CNS): 9140 nM | GI50 (HS 578T breast): 2050 nM | TGI (HS 578T breast): 5970 nM | GI50 (TK-10 renal): 2100 nM | TGI (TK-10 renal): 6810 nM | GI50 (M14 melanoma): 1500 nM | TGI (M14 melanoma): 3280 nM | GI50 (LOX IMVI melanoma): 411 nM | TGI (LOX IMVI melanoma): 1670 nM | GI50 (SN12C renal): 1840 nM | TGI (SN12C renal): 5400 nM | GI50 (UACC-257 melanoma): 2500 nM | TGI (UACC-257 melanoma): 7470 nM | GI50 (HL-60(TB) leukemia): 2570 nM | TGI (HL-60(TB) leukemia): 14200 nM | GI50 (SW-620 colon): 491 nM | TGI (SW-620 colon): 7690 nM | GI50 (NCI-H23 lung): 1140 nM | TGI (NCI-H23 lung): 3450 nM | GI50 (PC-3 prostate): 794 nM | TGI (PC-3 prostate): 3630 nM | GI50 (CCRF-CEM leukemia): 585 nM | TGI (CCRF-CEM leukemia): > 100000 nM | GI50 (EKVX NSCLC): 2100 nM | TGI (EKVX NSCLC): 5520 nM | GI50 (KM12 colon): 2610 nM | TGI (KM12 colon): 7990 nM | GI50 (SR leukemia): 646 nM | TGI (SR leukemia): > 100000 nM | GI50 (SNB-19 CNS): 2310 nM | TGI (SNB-19 CNS): 6500 nM | GI50 (DU-145 prostate): 2210 nM | TGI (DU-145 prostate): 5910 nM | GI50 (IGROV1 ovarian): 414 nM | TGI (IGROV1 ovarian): 1620 nM | GI50 (HCT-116 colon): 1710 nM | TGI (HCT-116 colon): 5020 nM | GI50 (HOP-62 NSCLC): 2500 nM | TGI (HOP-62 NSCLC): 6580 nM | GI50 (A549 NSCLC): 2570 nM | TGI (A549 NSCLC): 8020 nM | GI50 (HT29 colon): 797 nM | TGI (HT29 colon): 3260 nM | GI50 (T-47D breast): 2310 nM | TGI (T-47D breast): 6710 nM | GI50 (NCI-H226 lung): 1640 nM | TGI (NCI-H226 lung): 4460 nM | GI50 (786-0 renal): 1970 nM | TGI (786-0 renal): 4210 nM | GI50 (HCT-15 colon): 845 nM | TGI (HCT-15 colon): 5350 nM | GI50 (MDA-MB-435): 1680 nM | TGI (MDA-MB-435): 3100 nM
